# Results: PMC8436411 (ACS Medicinal Chemistry Letters, 2021)
# Values joined by “and” are separate entries in the source; they are usually repeats but may differ in a detail not shown here. Equal values may be shown once. Read-outs that look alike come from different tables or passages of the source.
# Key:
# S. aureus DNA gyrase = molecular target: T1, S. aureus DNA gyrase (Staphylococcus aureus, UniProt P20831); assay: DNA gyrase supercoiling inhibition assay (S. aureus); assay type: biochemical; conditions: mean of two independent measurements ± SD
# T1 construct: purchased Inspiralis (Norwich, UK)
# Protocol: We synthesized and biologically evaluated ten new compounds. We determined their inhibitory activity, expressed as IC50 values, on both Gram-positive S. aureus and Gram-negative E. coli bacterial enzymes (DNA gyrase and topo IV), respectively. The in vitro antibacterial activity, expressed as minimum inhibitory concentration (MIC), was determined against broad spectrum of bacteria, including Gram-positive (Staphylococcus aureus, methicillin-resistant Staphylococcus aureus, Streptococcus agalactiae, and Enterococcus faecalis) and Gram-negative strains (Escherichia coli, Salmonella alachua, Pseudomonas aeruginosa, and Klebsiella pneumoniae), enriched with various MRSA strains resistant to various antibiotics as well as E. coli strains with increased membrane permeability and lack of efflux pump, as well. Furthermore, the selectivity of compounds for bacterial enzyme compared to the orthologous human topoisomerase IIα was also considered. The in vitro safety profile was determined by cytotoxicity assessment on human umbilical vein endothelial cell lines (HUVEC) and HepG2 liver cancer cell lines.
# Determination of DNA gyrase and topoisomerase IV inhibitory activities
# To determine the IC50 values of the compounds, a Gyrase Supercoiling High Throughput Plate assay kit and a TopoIV Relaxation High Throughput Plate assay kit, commercially available from Inspiralis (Norwich, UK), were used for S. aureus and E. coli. The assays were performed on black streptavidin-coated 96-well microtiter plates (Thermo Scientific Pierce, Norwich, UK) and the wells were first […]
# BSA and 0.05% [v/v] Tween-20). Biotinylated oligonucleotide diluted with the wash buffer was then immobilized in each well and the excess was removed with the wash buffer. 1.5 U of the enzyme S. aureus or E. coli DNA gyrase (topoIV) was incubated together with 0.75 μg of relaxed (supercoiled) pNO1 plasmid as substrate in the presence of 3 μl inhibitor solution in 10% DMSO and 0.008% Tween-20 at 37°C for 30 min in a final reaction volume of 30 μl in the assay buffer (S. aureus DNA gyrase: 40 mM HEPES.KOH (pH 7.6), 10 mM magnesium acetate, 10 mM DTT, 2 mM ATP, 500 mM potassium glutamate and 0.05 mg/ml albumin; E. coli DNA gyrase: 35 mM Tris.HCl (pH 7.5), 24 […]
# mg/ml albumin; S. aureus topo IV: 50 mM Tris.HCl (7.5), 5 mM MgCl 2, 5 mM DTT, 1.5 mM ATP, 350 mM potassium glutamate and 0.05 mg/ml albumin; E. coli topo IV: 40 mM HEPES.KOH (pH 7.6), 100 mM potassium glutamate, 10 mM magnesium acetate, 10 mM DTT, 1 mM ATP and 50 μg/ml albumin). The reaction was stopped by adding the TF buffer (50 mM NaOAc (pH 4.7), 50 mM NaCl and 50 mM MgCl2) to allow triplex formation (biotin oligonucleotide plasmid) for another 30 min. Finally, the unbound plasmid was washed off using the TF buffer and the Promega Diamond dye was added to T10 buffer (10 mM Tris-HCl (pH 8.0), 1 mM EDTA) solution. After 15 min the solution […]
# Two inhibitor concentrations of 100 and 1 μM were used for pre-screening. The IC 50 values […]
# (IC50) was calculated by nonlinear regression-based fitting of the inhibition curves using the log [inhibitor] versus response-variable slope (four parameters) – symmetrical equation, in GraphPad Prism 6.0 software (GraphPad Software, CA, USA). The IC50 value represents the average of two independent measurements.
# The minimum inhibitory concentrations (MICs) were determined using the broth micro-dilution method in 96-well plate format according to the Clinical and Laboratory Standards Institute
# S. aureus topoIV = molecular target: T2, S. aureus topoIV (Staphylococcus aureus, UniProt Q2FYS4); assay: TopoIV decatenation inhibition assay (S. aureus); assay type: biochemical; conditions: read-out: IC50 TopoIV S. aureus, mean of two independent measurements ± SD
# T2 construct: purchased Inspiralis (Norwich, UK)
# Human topoisomerase IIα = Human topoisomerase IIα (Homo sapiens, UniProt P11388); assay: Human topoisomerase IIα residual activity; assay type: biochemical; conditions: read-out: Human topoisomerase IIα (%RA)
# E. coli (ATCC 25922) [1] = assay: microbe, parasite or virus in culture; conditions: Escherichia coli, ATCC25922, read-out: MIC E. coli (ATCC 25922)
# Protocol: (§1) The in vitro antibacterial activity, expressed as minimum inhibitory concentration (MIC), was determined against broad spectrum of bacteria, including Gram-positive (Staphylococcus aureus, methicillin-resistant Staphylococcus aureus, Streptococcus agalactiae, and Enterococcus faecalis) and Gram-negative strains (Escherichia coli, Salmonella alachua, Pseudomonas aeruginosa, and Klebsiella pneumoniae), enriched with various MRSA strains resistant to various antibiotics as well as E. coli strains with increased membrane permeability and lack of efflux pump, as well. […]
# (§2) The minimum inhibitory concentrations (MICs) were determined using the broth micro-dilution method in 96-well plate format according to the Clinical and Laboratory Standards Institute […]
# (§3) guidelines8 and European Committee on Antimicrobial Susceptibility Testing recommendations9. The bacterial suspension of the specific bacterial strain equivalent to the 0.5 McFarland turbidity standard was diluted with cation-adapted Mueller Hinton broth with TES (Thermo Fisher Scientific) to obtain a […]
# (§4) The compounds dissolved in DMSO and inoculum were mixed together and incubated for 20 h at 35 °C.
# E. coli D22 [2] = assay: microbe, parasite or virus in culture; conditions: Escherichia coli
# Protocol: as §1, §2, §3, §4
# [3] = test system: E. coli N43 (CGSC no. 5583); assay: microbe, parasite or virus in culture; conditions: Escherichia coli
# Protocol: as §1, §2, §3, §4
# [4] = test system: Enterococcus faecalis DRK 057 (ATCC 29212); assay: microbe, parasite or virus in culture
# Protocol: as §1, §2, §3, §4
# Klebsiella pneumoniae = assay: microbe, parasite or virus in culture
# Protocol: as §1, §2, §3, §4
# MRSA (QA-11.7) [5] = assay: microbe, parasite or virus in culture; conditions: Staphylococcus aureus, read-out: MIC MRSA (QA-11.7)
# Protocol: as §1, §2, §3, §4
# MRSA (QA-12.1) = assay: microbe, parasite or virus in culture; conditions: Staphylococcus aureus, read-out: MIC MRSA (QA-12.1)
# Protocol: as §1, §2, §3, §4
# [6] = test system: Pseudomonas aeruginosa RDK 184 (DSM 939); assay: microbe, parasite or virus in culture
# Protocol: as §1, §2, §3, §4
# S. aureus (ATCC 29213) [7] = assay: microbe, parasite or virus in culture; conditions: Staphylococcus aureus, ATCC29213, read-out: MIC S. aureus (ATCC 29213)
# Protocol: as §1, §2, §3, §4
# [8] = test system: Salmonella alachua RDK 030c (QA-1482/04); assay: microbe, parasite or virus in culture
# Protocol: as §1, §2, §3, §4
# [9] = test system: Streptococcus agalactiae RDK 047 (QA-990/02); assay: microbe, parasite or virus in culture
# Protocol: as §1, §2, §3, §4
# S. aureus (ATCC 29213) [10] = conditions: Table S3; ref 10 (SI); cited from earlier work
# E. coli (ATCC 25922) [11] = conditions: Table S3; ref 10 (SI); cited from earlier work
# E. coli D22 [12] = conditions: Table S3; mutation in the lpxC gene that increases membrane permeability; ref 10 (SI); cited from earlier work
# [13] = test system: E. coli N43 (CGSC no. 5583); conditions: Table S3; AcrA knockout strain; ref 10 (SI); cited from earlier work
# MRSA (QA-11.7) [14] = conditions: Table S3; ref 10 (SI); cited from earlier work
# [15] = test system: Salmonella alachua RDK 030c (QA-1482/04); conditions: Table S3; ref 10 (SI); cited from earlier work
# [16] = test system: Pseudomonas aeruginosa RDK 184 (DSM 939); conditions: Table S3; ref 10 (SI); cited from earlier work
# [17] = test system: Streptococcus agalactiae RDK 047 (QA-990/02); conditions: Table S3; ref 10 (SI); cited from earlier work
# T2 sequence (Q2FYS4 whole entry, looked up): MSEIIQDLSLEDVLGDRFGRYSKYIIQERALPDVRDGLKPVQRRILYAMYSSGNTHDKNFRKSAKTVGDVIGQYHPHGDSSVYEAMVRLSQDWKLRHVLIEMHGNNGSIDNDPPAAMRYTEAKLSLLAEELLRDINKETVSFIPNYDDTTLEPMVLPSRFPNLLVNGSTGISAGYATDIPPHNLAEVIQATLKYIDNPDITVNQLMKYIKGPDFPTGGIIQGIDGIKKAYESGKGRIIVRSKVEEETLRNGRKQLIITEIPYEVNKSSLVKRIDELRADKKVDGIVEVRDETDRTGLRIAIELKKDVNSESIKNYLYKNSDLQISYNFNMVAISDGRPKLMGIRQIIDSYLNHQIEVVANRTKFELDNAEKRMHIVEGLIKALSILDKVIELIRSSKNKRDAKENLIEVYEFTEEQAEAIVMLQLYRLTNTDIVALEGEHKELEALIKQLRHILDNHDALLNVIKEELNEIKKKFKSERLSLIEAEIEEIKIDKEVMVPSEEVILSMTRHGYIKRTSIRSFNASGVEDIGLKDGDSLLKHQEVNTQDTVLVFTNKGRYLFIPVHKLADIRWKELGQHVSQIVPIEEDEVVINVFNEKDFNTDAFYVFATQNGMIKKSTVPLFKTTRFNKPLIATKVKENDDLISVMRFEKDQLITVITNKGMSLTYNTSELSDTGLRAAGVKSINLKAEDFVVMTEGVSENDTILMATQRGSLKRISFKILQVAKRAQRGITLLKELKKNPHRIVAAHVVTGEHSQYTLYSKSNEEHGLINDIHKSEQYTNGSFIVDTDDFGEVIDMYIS
# T1 sequence (P20831 whole entry, looked up): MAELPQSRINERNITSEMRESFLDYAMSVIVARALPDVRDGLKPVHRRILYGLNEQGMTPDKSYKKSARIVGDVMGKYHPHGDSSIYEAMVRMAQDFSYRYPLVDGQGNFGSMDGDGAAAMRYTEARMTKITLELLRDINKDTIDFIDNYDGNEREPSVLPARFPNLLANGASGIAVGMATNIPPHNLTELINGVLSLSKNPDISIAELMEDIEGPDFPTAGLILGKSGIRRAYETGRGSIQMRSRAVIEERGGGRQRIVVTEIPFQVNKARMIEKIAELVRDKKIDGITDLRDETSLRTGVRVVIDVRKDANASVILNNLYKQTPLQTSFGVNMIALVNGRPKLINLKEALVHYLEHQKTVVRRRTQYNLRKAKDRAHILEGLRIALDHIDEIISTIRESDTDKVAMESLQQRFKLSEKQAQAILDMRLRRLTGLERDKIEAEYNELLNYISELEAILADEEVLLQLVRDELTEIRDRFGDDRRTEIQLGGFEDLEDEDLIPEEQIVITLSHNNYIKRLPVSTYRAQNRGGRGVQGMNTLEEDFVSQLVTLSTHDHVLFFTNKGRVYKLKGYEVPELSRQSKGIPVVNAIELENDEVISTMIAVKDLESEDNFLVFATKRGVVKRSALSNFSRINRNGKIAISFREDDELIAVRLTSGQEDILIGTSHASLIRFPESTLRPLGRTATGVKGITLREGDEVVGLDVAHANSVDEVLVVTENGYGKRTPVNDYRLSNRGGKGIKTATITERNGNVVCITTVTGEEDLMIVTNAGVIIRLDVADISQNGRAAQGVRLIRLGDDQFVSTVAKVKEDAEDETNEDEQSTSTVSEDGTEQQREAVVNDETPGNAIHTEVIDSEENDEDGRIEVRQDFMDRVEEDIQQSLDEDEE
# Human topoisomerase IIα, sequence (P11388 whole entry): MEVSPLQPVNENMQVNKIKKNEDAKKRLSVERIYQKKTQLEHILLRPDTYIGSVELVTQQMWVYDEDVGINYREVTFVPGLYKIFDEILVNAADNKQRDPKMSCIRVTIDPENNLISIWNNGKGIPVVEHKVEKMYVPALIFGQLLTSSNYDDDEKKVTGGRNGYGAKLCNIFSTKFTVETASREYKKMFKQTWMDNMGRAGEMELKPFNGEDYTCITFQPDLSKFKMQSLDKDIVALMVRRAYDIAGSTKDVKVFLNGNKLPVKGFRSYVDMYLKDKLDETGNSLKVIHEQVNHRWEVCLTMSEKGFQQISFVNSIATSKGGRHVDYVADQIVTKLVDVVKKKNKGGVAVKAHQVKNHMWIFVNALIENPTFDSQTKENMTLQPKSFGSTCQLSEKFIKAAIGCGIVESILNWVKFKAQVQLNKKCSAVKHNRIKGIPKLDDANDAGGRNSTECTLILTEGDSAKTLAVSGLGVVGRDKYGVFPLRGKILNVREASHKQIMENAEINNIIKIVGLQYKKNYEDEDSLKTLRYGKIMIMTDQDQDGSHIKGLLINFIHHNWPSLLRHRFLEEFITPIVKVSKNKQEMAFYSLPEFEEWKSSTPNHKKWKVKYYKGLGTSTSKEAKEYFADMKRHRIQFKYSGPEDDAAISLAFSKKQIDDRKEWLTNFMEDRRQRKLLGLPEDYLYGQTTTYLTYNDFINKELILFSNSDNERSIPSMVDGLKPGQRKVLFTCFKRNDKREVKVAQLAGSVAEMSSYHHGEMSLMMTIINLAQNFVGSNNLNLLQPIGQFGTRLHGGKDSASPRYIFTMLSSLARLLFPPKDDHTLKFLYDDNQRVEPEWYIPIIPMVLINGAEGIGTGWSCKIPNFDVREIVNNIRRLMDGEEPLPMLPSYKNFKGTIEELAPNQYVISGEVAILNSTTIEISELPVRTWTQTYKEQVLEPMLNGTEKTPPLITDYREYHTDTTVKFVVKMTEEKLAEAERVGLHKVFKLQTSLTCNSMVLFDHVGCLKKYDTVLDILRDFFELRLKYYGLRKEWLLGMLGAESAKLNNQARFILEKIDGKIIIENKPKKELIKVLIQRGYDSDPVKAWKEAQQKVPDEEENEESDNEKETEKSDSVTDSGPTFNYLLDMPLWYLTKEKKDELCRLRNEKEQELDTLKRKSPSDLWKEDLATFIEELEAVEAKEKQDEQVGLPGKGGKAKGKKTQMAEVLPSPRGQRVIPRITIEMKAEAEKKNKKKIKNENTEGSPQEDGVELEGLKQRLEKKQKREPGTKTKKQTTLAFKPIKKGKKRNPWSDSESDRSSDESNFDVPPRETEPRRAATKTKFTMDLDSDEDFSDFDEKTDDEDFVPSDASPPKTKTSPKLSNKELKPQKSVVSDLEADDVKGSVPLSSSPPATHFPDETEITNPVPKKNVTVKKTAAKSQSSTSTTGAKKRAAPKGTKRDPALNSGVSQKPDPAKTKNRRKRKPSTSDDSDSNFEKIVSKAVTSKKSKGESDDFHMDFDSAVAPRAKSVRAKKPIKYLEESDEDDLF
smiles,measurement,setting,value
COc1ccc2nccc(CCN3CCC(NCc4ccc(I)c(F)c4)CC3)c2n1 [Compound 6],IC50,S. aureus DNA gyrase,4 nM
same,IC50,S. aureus topoIV,90 ± 102 nM
same,remaining activity at 10 µM,Human topoisomerase IIα,97.7 ± 1.31%
same,MIC,E. coli (ATCC 25922) [1],0.961 µM and 0.5 µg/mL
same,MIC,"E. coli D22 [2]; D22, read-out: MIC E. coli D2",0.119 µM
same,MIC,"E. coli D22 [2]; D22, read-out: MIC E. coli D22",0.062 µg/mL
same,MIC,[3]; read-out: MIC E. coli N43 (CGSC no. 5583),0.016 µg/mL
same,MIC,[3]; read-out: MIC E. coli N43 (CGSC# 5583),0.031 µM
same,MIC,"[4]; ATCC29212, read-out: MIC E. faecalis DRK 057 (ATCC 29212)",0.48 µM
same,MIC,"[4]; ATCC29212, read-out: MIC Enterococcus faecalis DRK 057 (ATCC 29212)",0.25 µg/mL
same,MIC,Klebsiella pneumoniae; read-out: MIC K. pneumoniae,15.4 µM
same,MIC,Klebsiella pneumoniae; read-out: MIC Klebsiella pneumoniae,8 µg/mL
same,MIC,MRSA (QA-11.7) [5],0.031 µM and 0.016 µg/mL
same,MIC,MRSA (QA-12.1),0.031 µM and 0.016 µg/mL
same,MIC,"[6]; DSM939, read-out: MIC P. aeruginosa RDK 184 (DSM 939)",30.7 µM
same,MIC,"[6]; DSM939, read-out: MIC Pseudomonas aeruginosa RDK 184 (DSM 939)",16 µg/mL
same,MIC,S. aureus (ATCC 29213) [7],0.015 µM and 0.008 µg/mL
same,MIC,[8]; read-out: MIC S. alachua RDK 030c (QA-1482/04),3.84 µM
same,MIC,[8]; read-out: MIC Salmonella alachua RDK 030c (QA-1482/04),2 µg/mL
same,MIC,[9]; read-out: MIC S. agalactiae RDK 047 (QA-990/02),0.48 µM
same,MIC,[9]; read-out: MIC Streptococcus agalactiae RDK 047 (QA-990/02),0.25 µg/mL
COc1ccc2nccc(CCN3CCC(NCc4ccc(I)cc4)CC3)c2n1 [Compound 3],MIC S. aureus (ATCC 29213),S. aureus (ATCC 29213) [10],0.016 µM
same,MIC E. coli (ATCC 25922),E. coli (ATCC 25922) [11],3.98 µM
same,MIC E. coli D2,E. coli D22 [12],0.249 µM
same,MIC E. coli N43 (CGSC# 5583),[13],0.155 µM
same,MIC MRSA (QA-11.7),MRSA (QA-11.7) [14],0.016 µM
same,MIC S. alachua RDK 030c (QA-1482/04),[15],15.9 µM
same,MIC P. aeruginosa RDK 184 (DSM 939),[16],63.7 µM
same,MIC S. agalactiae RDK 047 (QA-990/02),[17],0.249 µM
